The record followed here is patent US20230348378A1, “SMALL MOLECULE ALBUMIN BINDERS” (Oregon Health & Science University, priority 2020, published 2023).

Each structure is given as a SMILES string. Starred links: 1 amine or outer side, 2 acyl side, 3 side chain; linkers in the order of their positions; H or OH if unused. Positions of bridges follow the written chain, without caps; N, C: chain ends. Non-standard residues stand in square brackets, D forms with d. Residues, ends and D or L forms follow the SMILES beside them. *: point of attachment. DOTA = O=C(O)CN1CCN(CC(=O)O)CCN(CC(=O)*)CCN(CC(=O)O)CC1; NH(CH2CH2O)4CH2CO = O=C(COCCOCCOCCOCCN[*:1])[*:2]; X2 = O=C(CCCc1ccc(C(F)(F)F)c(F)c1)*; X1 = O=C(CCCc1ccc(C(F)(F)F)cc1)*

Data set [1] has as its target human serum albumin (HSA) (Homo sapiens, UniProt P02768). Nature of the data set: In vitro albumin protein binding ultrafiltration assay. The following applies: for change of albumin binding affinity versus the corresponding ABX conjugate: D-ABCF3 vs ABCF3, hABCF3P vs ABCF3P, hABF3P vs ABF3P, εABCF3 vs ABCF3. How it is done: Following the published protocol, ultrafiltration assay was performed to assess albumin-binding properties of ^111In or ^64Cu labeled albumin binder-radioligand conjugates. ^111In or ^64Cu radiolabeling was conducted in NH4OAc (0.2 M, pH=7.0) buffer at 80° C. for 30 min with a specific activity of 3.7 MBq/nmol (100 μCi/nmol). The resulting albumin binder-radioligand conjugate (10 μL, 10 μM) was mixed with 100 μL human serum albumin (HSA, 1.0 mM in PBS 1×) and 90 μL PBS, followed by shaking gently at 37° C. for 30 min. After the incubation, 80 μL of each solution was loaded on the Zeba™ spin desalting column (7K MWCO) and centrifuged at 1500 g for 2 min. Radioactivity in 20 μL of each filtration and 10 μL mixture (before filtration) were quantified by the γ counter. The filtration rate of each sample was calculated as filtered counts/(mixture counts×2)×100%, all obtained results were then normalized by setting standard ABCF3 moiety as 74.4%. for the comparison purpose. The experiment was performed with triplicates. For working curve, different final concentrations of HSA varied from 10-1500 μM were used, followed the same protocol.

Data set [2] relates to PSMA+ PC3pip xenograft. The arrangement: species or system mice. The following applies: mouse, in vivo. As to the method:
Biodistribution studies were performed 2 weeks after the tumor inoculation, when the size of tumor reached 5 mm. ^111In-labeled albumin binder-radioligand conjugates (1.85 MBq, 100 μL) were then administered via a lateral tail vein. The mice were sacrificed at 1, 2, 16, 24, or 48 h post-injections. Selected organs were collected and weighed, and the radioactivity was measured by the γ counter (Packard, Cobra E5003). The results were calculated as percentage of the injected dose per gram of mass (% ID/g).

In data set [3] the test system is BxPC3 xenograft. Nature of the data set: Biodistribution in mice bearing BxPC3 xenograft. Format: in vivo.
[4] abbreviates: filtration assay, [HSA]=500 μM, [tracers]=0.5 μM.
The mark [5] stands for this setting: in vivo evaluation of FRGD without albumin binder.

Chain of human serum albumin (HSA) (P02768 25-609): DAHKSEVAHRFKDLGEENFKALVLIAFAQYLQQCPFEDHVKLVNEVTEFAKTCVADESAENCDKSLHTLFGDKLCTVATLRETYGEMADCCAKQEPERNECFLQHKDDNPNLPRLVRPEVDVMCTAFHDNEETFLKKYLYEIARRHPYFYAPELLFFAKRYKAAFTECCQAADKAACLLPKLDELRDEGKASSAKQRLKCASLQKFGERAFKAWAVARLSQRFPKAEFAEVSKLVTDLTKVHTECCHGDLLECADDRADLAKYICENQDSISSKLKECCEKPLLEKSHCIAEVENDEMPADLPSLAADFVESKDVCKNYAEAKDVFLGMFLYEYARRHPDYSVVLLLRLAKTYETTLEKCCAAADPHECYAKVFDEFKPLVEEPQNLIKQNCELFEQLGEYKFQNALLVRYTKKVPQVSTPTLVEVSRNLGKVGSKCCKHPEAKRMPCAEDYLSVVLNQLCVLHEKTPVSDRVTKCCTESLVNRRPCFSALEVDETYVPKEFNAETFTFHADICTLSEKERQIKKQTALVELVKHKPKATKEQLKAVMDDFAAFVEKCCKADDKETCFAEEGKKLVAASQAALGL

With `CC(C)C[C@@H]1NC(=O)[C@H](CC(=O)O)NC(=O)CNC(=O)[C@H](CCCNC(=N)N)NC(=O)CNC(=O)[C@H]([C@@H](C)O)NC(=O)[C@@H](NC(=O)[C@H](CCCNC(=N)N)NC(=O)CNC(=O)CN2CCN(CC(=O)O)CCN(CC(=O)O)CCN(CC(=O)O)CC2)CSSC[C@@H](C(=O)N[C@@H](Cc2ccc(O)cc2)C(=O)N2CCC[C@H]2C(=O)N[C@@H](CC(=O)O)C(=O)NCCOCCOCCOCCOCC(=O)N[C@@H](CCCCNC(=O)CCCc2ccc(C(F)(F)F)cc2)C(=O)O)NC(=O)[C@H](CC(C)C)NC(=O)[C@H](CCCNC(=N)N)NC(=O)CNC1=O` [SFLAP3-ABCF3] ({DOTA}-GRCTGRGDLGRLCYPD[NH(CH2CH2O)4CH2CO]K(X1)-OH; disulfide 3-13), in data set [1] (64Cu-labeled, filtration assay, FIG. 6), the “percentage bound to albumin protein” value is listed as roughly 75%.

As for `O=C(O)CC[C@H](NC(=O)N[C@@H](CCCCNC(=O)[C@H](Cc1ccc2ccccc2c1)NC(=O)[C@H]1CC[C@H](CNC(=O)[C@H](CCCCNC(=O)CN2CCN(CC(=O)O)CCN(CC(=O)O)CCN(CC(=O)O)CC2)NC(=O)CCC(=O)N[C@@H](CCCCNC(=O)CCCc2ccc(C(F)(F)F)cc2)C(=O)O)CC1)C(=O)O)C(=O)O` (64Cu complex, metal not drawn) [PSMA617-ABCF3], in data set [2], the “increase of specific tumor uptake compared to PSMA617” value was greater than 2 × and the “tumor/nontumor ratios compared to PSMA617” value is “enhance tumor/nontumor ratios”.

Consider `[N-]=[N+]=NCCCC[C@H](NC(=O)CN1CCN(CC(=O)O)CCN(CC(=O)O)CCN(CC(=O)O)CC1)C(=O)NCC(=O)NCCCC[C@H](NCCC(=O)NCCCCc1ccc(C(F)(F)F)cc1)C(=O)O` [εABCF3], for which, in data set [1] (setting [4]), the “change of albumin binding affinity versus the corresponding ABX conjugate” value (“change” for short) was “significantly decrease its binding affinity”.

On to `[N-]=[N+]=NCCCC[C@H](NC(=O)CN1CCC(CC(=O)O)CCN(CC(=O)O)CCN(CC(=O)O)CC1)C(=O)NCCCCCC(=O)N[C@@H](CCCCNC(=O)CCCc1ccc(C(F)(F)F)cc1)C(=O)O` (some centres unmarked) [ABCF3], for which the “filtration percentage (normalized)” value in data set [1] (64Cu-labeled DOTA-albumin binder conjugate, [HSA]=500 μM, [tracers]=0.5 μM, value set as normalisation standard (average)) is listed as 75%.

`CC(C)C[C@@H]1NC(=O)[C@H](CC(=O)O)NC(=O)CNC(=O)[C@H](CCCNC(=N)N)NC(=O)CNC(=O)[C@H]([C@@H](C)O)NC(=O)[C@@H](NC(=O)[C@H](CCCNC(=N)N)NC(=O)CNC(=O)CN2CCN(CC(=O)O)CCN(CC(=O)O)CCN(CC(=O)O)CC2)CSSC[C@@H](C(=O)N[C@@H](Cc2ccc(O)cc2)C(=O)N2CCC[C@H]2C(=O)N[C@@H](CC(=O)O)C(=O)NCCOCCOCCOCCOCC(=O)N[C@@H](CCCCNC(=O)CCCc2ccc(C(F)(F)F)c(F)c2)C(=O)O)NC(=O)[C@H](CC(C)C)NC(=O)[C@H](CCCNC(=N)N)NC(=O)CNC1=O` [SFLAP3-ABCF3-3F] ({DOTA}-GRCTGRGDLGRLCYPD[NH(CH2CH2O)4CH2CO]K(X2)-OH; disulfide 3-13): the “in vivo performance (biodistribution, tumor/nontumor ratios)” value in data set [3] (SFLAP3 conjugates with various ABX, 24 h) is reported as “best in vivo performance among all the tested ABX”.

Consider `[N-]=[N+]=NCCCC[C@H](NC(=O)CN1CCC(CC(=O)O)CCN(CC(=O)O)CCN(CC(=O)O)CC1)C(=O)NCCCCCC(=O)N[C@H](CCCCNC(=O)CCCc1ccc(C(F)(F)F)cc1)C(=O)O` (stereo partly drawn) [D-ABCF3], for which the “change” value in data set [1] (setting [4]) is given as “slightly increased binding affinity”.

Consider `CC(C)C[C@@H]1NC(=O)[C@H](CC(=O)O)NC(=O)CNC(=O)[C@H](CCCNC(=N)N)NC(=O)[C@H](Cc2ccccc2)NC(=O)[C@H](CCCCN)N(C)C(=O)[C@H]2CCCN2C(=O)[C@H](Cc2ccccc2)NC(=O)[C@H](C)NC1=O` (111In complex, metal not drawn) [FRGD], for which the kidney uptake entry in data set [3] (111In labeled, without ABCF3) is listed as “very high”. Moreover, in data set [3] (setting [5]), the non-tumor uptakes entry is given as “high non-tumor uptakes” and the tumor uptake result was “relatively low tumor uptake”.

For `[N-]=[N+]=NCCCC[C@H](NC(=O)CN1CCN(CC(=O)O)CCN(CC(=O)O)CCN(CC(=O)O)CC1)C(=O)NCCCCCC(=O)N[C@H](CCCCCNC(=O)CCc1cc(F)c(F)c(F)c1)C(=O)O` [hABF3P], the “change” value in data set [1] (setting [4]) was “slightly increased binding affinity”.
